Data published in publication PMC9597602, “Metal Complexes as Antifungals? From a Crowd-Sourced Compound Library to the First In Vivo Experiments” (JACS Au, 2022).
Entries after “also recorded” stand apart in the source; their conditions may differ.

Legend:
[1] = system: Candida albicans ATCC 90028 NCCLS11; assay: Antifungal MIC assay; type: cell-based; conditions: for MIC50 Candida albicans ATCC 90028: 50% inhibition, MIC score 2; for MIC Ca: initial CO-ADD dose-response screening, ≥80% growth inhibition
Procedure, shortened: (§1)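 Colonies from 3-day YPD plates (30 °C) were suspended, diluted into YNB and added to compound plates at a final density of 2.5 × 10^3 CFU/mL. After 36 h at 35 °C without agitation, growth inhibition of ≥80% defined the MIC. Two technical replicates, 2–4 independent runs.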

[2] = system: Cryptococcus neoformans H99 ATCC 208821 type strain; assay: Antifungal MIC assay; type: cell-based; conditions: for MIC / MIC50 Cryptococcus neoformans ATCC 208821 / MIC Cryptococcus neoformans ATCC 208821: extended panel; for MIC / MIC Cryptococcus neoformans ATCC 208821: second batch, ≥80 or ≥50% inhibition; for MIC: read-out: MIC* Cryptococcus neoformans ATCC 208821; for MIC50 Cryptococcus neoformans ATCC 208821: 50% inhibition, MIC score 2; for MIC Cn: initial CO-ADD dose-response screening, ≥80% growth inhibition
Procedure, shortened: as §1

[3] = system: Candida auris CBS10913 JCM 15448; assay: Antifungal MIC assay, extended panel; type: cell-based; conditions: extended panel; for MIC / MIC Candida auris CBS10913: second batch, ≥80 or ≥50% inhibition; for MIC: read-out: MIC* Candida auris CBS10913; for MIC50 Candida auris CBS10913: 50% inhibition, MIC score 2
Procedure, shortened: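 Yeast strains were grown on YPD agar at 30 °C for 3 days. Five colonies were suspended to 1 × 10^6 to 5 × 10^6 CFU/mL (by OD530), diluted in YNB medium, and dispensed into compound-containing 384-well NBS plates to 2.5 × 10^3 CFU/mL in 50 μL. Covered plates were held at 35 °C for 36 h without shaking, and MIC was determined by broth dilution.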

[4] = system: Candida auris CBS12373 KCTC 17810; assay: Antifungal MIC assay, extended panel; type: cell-based; conditions: extended panel; for MIC / MIC Candida auris CBS12373: second batch, ≥80 or ≥50% inhibition; for MIC: read-out: MIC* Candida auris CBS12373; for MIC50 Candida auris CBS12373: 50% inhibition, MIC score 2
Procedure, shortened: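 Yeast was grown for 3 days at 30 °C on YPD agar. Five colonies were suspended to 1 × 10^6 to 5 × 10^6 CFU/mL, checked by OD530, diluted in YNB medium, and dispensed onto compound-loaded 384-well NBS plates at 2.5 × 10^3 CFU/mL in 50 μL. Plates were covered and incubated without shaking at 35 °C for 36 h to determine MIC.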

[5] = Stability by NMR / UV-vis; type: physicochemical; conditions: for stability in DMSO solution, NMR or UV–vis spectra: after 24 h; for stability of solid samples, NMR spectra: room temperature, protected from light, 2 years
Method: The ligands for these complexes (Ligand-Ag1 and Ligand-Ag2 in the SI) were originally studied for their solvatochromism and were later coordinated with silver to investigate their potential antimicrobial activity.[84] The carboxylate ion is able to coordinate to silver with monodentate, chelating, and/or bridging modes. […] The stability of complexes Ag1 and Ag2 was assessed.
One concern with Pt1 is its potential stability under biological conditions. […] Future work will be aimed toward more comprehensive examinations of the chemical and biological stability of these and related compounds, as well as investigations into their mode of action.

[6] = system: Candida glabrata ATCC 90030 NCCLS 84; assay: Antifungal MIC assay, extended panel; type: cell-based; conditions: extended panel; 50% inhibition, MIC score 2
[7] = system: Candida tropicalis ATCC 750; assay: Antifungal MIC assay, extended panel; type: cell-based; conditions: extended panel; 50% inhibition, MIC score 2
[8] = system: Cryptococcus deuterogattii CBS7750 VGII; Serotype B; assay: Antifungal MIC assay, extended panel; type: cell-based; conditions: extended panel; 50% inhibition, MIC score 2
[9] = system: Cryptococcus deuterogattii ATCC 32609 VGII; assay: Antifungal MIC assay, extended panel; type: cell-based; conditions: extended panel; 50% inhibition, MIC score 2
[10] = system: C. albicans (ATCC 90028); assay: Galleria mellonella infection (survival) assay; type: in vivo, Candida albicans in Galleria mellonella larvae; conditions: G. mellonella inoculated with C. albicans, 10 μL compound solution, 5 days, vs untreated control
Method: In an initial survival assay, G. mellonella larvae were inoculated with C. albicans (ATCC 90028). The larvae were then injected with 10 μL of the compound solution, and their survival was monitored for the next 5 days. Fluconazole and 10% DMSO injections were used as controls.
The globally available strains for C. albicans and C. neoformans, namely, ATCC 90028 and H99, respectively, were used to assess the antifungal potential of the panel of cobalt complex compounds in the G. mellonella insect model. Each strain was cultured on Sabouraud dextrose agar (SDA) for 24–48 h at 27 °C prior to inoculation. Yeast colonies were then suspended in a phosphate-buffered saline solution (PBS), and cells’ concentrations were adjusted using a Neubauer counting chamber to 5 × 10^7 cells for ATCC 90028 and 1 × 10^8 cells for H99. Compounds were prepared by dissolving in 100% dimethylsulfoxide (DMSO) to 4 or 10 mM depending on compound solubility before being further diluted with water to 0.4 or 1 mM for injection into larvae.
Each group of larvae was subsequently incubated at 37 °C for 2 h in 90 mm Petri dishes. After incubation, larvae were injected with 10 μL of the compound into the last right pro-leg and returned to Petri dishes to incubate at 37 °C for 5 days. In addition to the panel of metal compounds, fluconazole (FLC) was included as a positive control (1 and 0.4 mM) and reference antifungal. Larvae inoculated with just the fungal strains and the fungal strains with 10% DMSO were also included as comparison groups. Larvae injected concurrently with PBS instead of fungal inoculum and compounds were used as negative controls. All larvae were checked daily for survival.

[11] = system: C. albicans (ATCC 90028); assay: Galleria mellonella infection (log CFU reduction) assay; type: in vivo, Candida albicans in Galleria mellonella larvae; conditions: 1 mM, 10 μL; Pt1 19 mg/kg, Pt2 28 mg/kg, fluconazole 12 mg/kg; 24 h at 37 °C; vs 10% DMSO control
Method: To quantify the possible protective effect of Pt1 and Pt2 in G. mellonella challenged with C. albicans, we conducted a CFU reduction assay with these compounds. Briefly, G. mellonella larvae were inoculated with C. albicans (ATCC 90028) and incubated for 2 h at 37 °C. The larvae were then injected with 10 μL of the corresponding compound solution (1 mM) or control (same concentration and injection volume) and incubated for 24 h at 37 °C. The larvae were then anesthetized, macerated, and serially diluted onto SDA (Sabouraud dextrose agar) plates. After 48 h of incubation, the CFUs were counted.
A log CFU reduction assay was conducted for two compounds and two control groups. […] Fluconazole (1 mM) and 10% DMSO were used once again as the control groups. Fifteen G. mellonella larvae (200–250 mg) per test group were selected and inoculated with 10 μL of C. albicans at a concentration of 5 × 10^7 cells/mL and incubated on 90 mm Petri dishes in groups of five larvae for 2 h at 37 °C. Larvae were then subsequently injected with 10 μL of the corresponding test compound or control and returned to Petri dishes to incubate for 24 h at 37 °C.
Larvae were then anesthetized on ice for 5 to 10 min before being placed in individual prefilled 2 mL tubes with 3.0 mm diameter zirconium beads with 1000 μL of PBS. They were then macerated briefly using the BeadBug 6 Homogenizer (Benchmark Scientific, USA) in two 45 s intervals at 4350 rpm. After homogenization, serial dilutions of 1:100, 1:1000, and 1:10,000 were then made for each larva/tube, and 100 μL of the dilution was spread plated onto SDA plates with 50 μg/mL chloramphenicol. Plates were then incubated at 27 °C for 48 h before CFUs were counted.
A one-way ANOVA was conducted to compare the CFU counts for Pt1, Pt2, and both controls. After a significant difference was observed between the groups, a subsequent Tukey’s pairwise test was used to compare the individual test groups with each other.

[12] = extended panel, second batch, ≥80 or ≥50% inhibition

Row | Structure (SMILES) | MIC50 Candida albicans ATCC 90028 ([1]; extended panel) [nM] | MIC Ca [1] | MIC50 Cryptococcus neoformans ATCC 208821 [2] [nM] | MIC Cn [2] | MIC [3] [nM] | MIC50 Candida auris CBS10913 [3] [nM] | MIC [4] [nM] | MIC50 Candida auris CBS12373 [4] [nM] | MIC50 Candida glabrata ATCC 90030 [6] [nM] | MIC50 Candida tropicalis ATCC 750 [7] [nM] | MIC50 Cryptococcus deuterogattii CBS7750 [8] [nM] | MIC50 Cryptococcus deuterogattii ATCC 32609 [9] [nM] | MIC Candida albicans ATCC 90028 [1, 12] [nM] | MIC Cryptococcus neoformans ATCC 208821 [2] [nM] | MIC Candida auris CBS10913 [3] [nM] | MIC Candida auris CBS12373 [4] [nM] | also measured
1 | COc1ccc(/C=C/C2=NN(c3ccc(C(=O)[O][Ag])cc3)C(c3ccc(OC)c(OC)c3)C2)cc1OC.COc1ccc(/C=C/C2=NN(c3ccc(C(=O)[O][Ag])cc3)C(c3ccc(OC)c(OC)c3)C2)cc1OC (racemic) [Ag1, (Ε)-1-(4-Carboxyphenyl)-5-(3,4-dimethoxyphenyl)-3-(3,4-dimethoxystyryl)-2-pyrazoline silver(I) complex] | ≤ 6 | ≤0.25 µg/mL | ≤ 6 | ≤0.25 µg/mL | 6 | ≤ 6 | ≤6 | ≤ 6 | ≤ 6 | ≤ 6 | ≤ 6 | ≤6 to 24 | – | – | – | – | MIC ([1]; extended panel, second batch, ≥80 or ≥50% inhibition, read-out: MIC* Candida albicans ATCC 90028): ≤6 nM; MIC [2]: ≤6 nM; stability in DMSO solution, NMR or UV–vis spectra [5]: no changes; stability of solid samples, NMR spectra [5]: identical NMR spectra
2 | O=C([O][Ag])c1ccc(N2N=C(/C=C/C=C/c3ccccc3)CC2/C=C/c2ccccc2)cc1.O=C([O][Ag])c1ccc(N2N=C(/C=C/C=C/c3ccccc3)CC2/C=C/c2ccccc2)cc1 (racemic) [Ag2, 1-(4-Carboxyphenyl)-3-{(1E,3E)-4-phenylbuta-1,3-dien-1-yl}-5-{(E)-styryl}-2-pyrazoline silver(I) complex] | ≤6 to 98 | ≤0.25 µg/mL | ≤6 to 98 | ≤0.25 µg/mL | – | ≤6 to 49 | – | ≤6 to 98 | 6 to 195 | ≤6 to 49 | ≤6 to 49 | ≤6 to 98 | ≤6 to 98 | ≤6 to 98 | 6 to 98 | 6 to 98 | stability in DMSO solution, NMR or UV–vis spectra [5]: no changes; stability of solid samples, NMR spectra [5]: identical NMR spectra
3 | CC(=NN=C(N)[S-])C(C)=NN=C(N)[S-].O=[N+]([O-])[O-].[Co+3].c1c[nH]cn1.c1c[nH]cn1 [Co1] | – | 0.5 µg/mL | – | 0.5 µg/mL | – | – | – | – | – | – | – | – | 780 to 1560 | 390 to 780 | 390 to 780 | 390 to 780 | –
4 | Cc1ccc2ccc3ccc(C)nc3c2n1.Cc1ccc2ccc3ccc(C)nc3c2n1.O=C([O][Eu]([O]C(=O)c1ccccc1F)[O]C(=O)c1ccccc1F)c1ccccc1F [Eu1] | ≤6 to 12 | – | ≤ 6 | – | 6 | ≤ 6 | 6 | ≤ 6 | 12 to 49 | ≤6 to 49 | 24 to 98 | 24 | ≤6 to 12 | – | – | – | MIC [2]: ≤6 nM
5 | C1=CCCC=CCC1.[Cl][Pt][Cl] [Pt1] | – | 10000 nM | – | 2500 nM | – | – | 3130 | – | – | – | – | – | 12500 to 25000 | 1560 to 3130 | 6250 to 12500 | – | larva survival [10]: significant larva survival; also recorded: showed some efficacy; reduction in CFUs [11]: 0.7 log10; stability in DMSO, 1H NMR spectrum ([5]; 7 days at room temperature): no changes of the ^1H NMR spectrum
6 | C1=CCCC=CCC1.[I][Pt][I] [Pt2] | – | 10000 nM | – | 1250 nM | 12500 | – | – | – | – | – | – | – | 12500 to 25000 | 1560 to 3130 | – | 3130 to 6250 | larva survival [10]: significant larva survival; also recorded: showed some efficacy; reduction in CFUs [11]: CFUs comparable to the DMSO control
7 | CC(C)C([O][Pt][Cl])C1=CCCC=CCC1 (stereo not shown) [Pt4] | – | 10000 nM | – | 1250 nM | – | – | – | – | – | – | – | – | 6250 to 12500 | ≤780 to 1560 | 6250 to 12500 | 1560 to 3120 | –
